These results are taken from patent US10961233B2 (LIFEARC, priority 2016, dated 2021).

Some results are limits rather than exact numbers.

Assay [1] addresses WT full length PAICS (Homo sapiens (Human), UniProt P22234). Briefly: Biochemical assay to measure PAICS activity (Transcreener ADP2 FI). The settings on record: SAICAR synthetase reaction, ADP detection, 30 min pre-incubation. The text has this:
Biochemical Assay to Measure PAICS Activity
The biochemical assay was used to measure PAICS SAICAR synthetase-mediated conversion of CAIR, aspartic acid and ATP to SAICAR, ADP and inorganic phosphate (Pi), post-AIR/CAIR equilibration (see FIG. 3). This was achieved by detecting the ADP generated during the reaction, using Bellbrook Lab's Transcreener ADP^2 FI assay. An increase in the fluorescence intensity is directly proportional to the amount of PAICS activity.
The Transcreener ADP^2 FI assay is a homogeneous competitive displacement fluorescence intensity assay which uses direct immunodetection of ADP. Displacement of the tracer by ADP causes an increase in the fluorescence at excitation 590 nm and emission 617 nm (FIG. 3).
5 μl WT full length PAICS (final assay concentration, fac, 2.5 nM) in basic buffer, added to black, non-binding, 384-well plates (Corning #3575), columns 1 to 22. 5 μl basic buffer was added to columns 23+24 (negative control). PAICS stock at 31.9 μM from the PI's lab (Steve Firestine). Basic buffer contained 50 mM Tris-HCl pH8 and 0.5 mM EDTA, fac.
1 μl compound in 100% DMSO added per well, or 1 μl 100% DMSO to positive controls (columns 1+2) and negative controls (columns 23+24). Final assay top concentration of compound either 1 mM or 30-μM, serially diluted with half-log dilutions across the plate in duplicate (one 10-point concentration response curve across wells 3 to 12, another across 13 to 22). Compounds pre-incubated with PAICS enzyme for 30 mins at RT. 2 μl CAIR added (fac 10 μM) in basic buffer plus 25 mM MgCl2 and 50 mM KHCO3 fac to all wells. CAIR stock 50 mM from Steve Firestine's lab. 1 hr RT incubation for AIR-CAIR equilibration. NB: ˜50% CAIR is decarboxylated during equilibration therefore 5 μM remains for the synthetase reaction.
2 μl ATP/aspartic acid added (fac 30 μM/180 μM) in reaction buffer to all wells. 30 mins RT incubation for appropriate level of ATP turnover. Reaction buffer contained basic buffer plus 10 mM DTT, 0.01% BSA and 0.01% Brij 35, fac.
10 μl ADP detection reagent added to all wells (as per instructions, Transcreener ADP^2 FI kit, BellBrook Labs #3013-10K). Incubation for 1 h at RT to allow antibody equilibration. Fluorescence intensity determined using a Tecan Safire2 (excitation at 590 nm, emission at 617 nm).

Assay [2] concerns LM2 and MDA-MB-231 breast cancer cell lines. Briefly: PAICS 2D cell proliferation assay (CellTiter-Glo viability, 72 h). Type of assay: cell-based. The following applies: Homo sapiens; 72 h incubation; cell line not given. The method, then:
PAICS 2D Cell Proliferation Assay
Frozen cryovial stocks of LM2 and MDA-MB-231 breast cancer cell lines were thawed and cultured in 4.5 g/L glucose DMEM (31966-047, Invitrogen) supplemented with 10% Fetal Bovine Serum (10500-064, Invitrogen) until confluent in a T175 flask. Cells were incubated at 37° C. with 5% CO2 in a humidified incubator.
Cells were collected from T175 flasks by washing with PBS (10010-056, Invitrogen) and dissociated using Accutase (A6964, Sigma Aldrich). This was followed by centrifuging (1200 rpm, 5 min) and resuspending the cells in 10 ml of media containing 1% penicillin/streptomycin (15140-122, Invitrogen). Cells were counted by trypan blue exclusion method using an automated cell counter (Cellometer) and diluted to a concentration of 40,000/ml. 1000 cells were then seeded into 384-well white-walled plates (Corning, 3707) in a volume of 25 μl. Plates were Incubated overnight at 37° C. with 5% CO2.
After 24 hours, PAICS compounds were added onto the assay plates using an HP D300 Digital Dispenser (Hewlett Packard). 10 mM stocks were used and dispensed as a 10 point concentration response curve (CRC) ½ log dilution series with a final top concentration of 100 μM. Controls were added onto each plate: positive controls included Staurosporine CRC (100 μM stock dispensed as a 10 point CRC ½ log dilution series with a final top concentration of 1 μM) and PAICS compound MRT00211919 (10 mM stock dispensed as a 10 point CRC ½ log dilution series with a final top concentration of 100 μM); a high control of Staurosporine (0.1 μM (LM2), 0.316 μM (MDA-MB-231) FAC) and a low control of media containing 1% DMSO. A final concentration of 1% DMSO was then added across the plates for normalisation. Following compound addition, assay plates were incubated for 72 hours at 37° C. with 5% CO2.
Day 5—Cytotoxicity and Cell Viability Assays
After 72 h incubation, dead and viable cells were measured in each assay plate. Cytotoxicity was assessed through fluorescent DNA staining using the CellTox™ Green Cytotoxicity Assay kit (G8743, Promega) following the manufacturer's multiplexing protocol. Impaired cell membrane integrity results in the access of dye to stain DNA allowing quantification of dead cells. Cell viability was determined following ATP quantification using the CellTiter-Glo® Luminescent Cell Viability Assay kit (G7572, Promega) following the manufacturer's protocol. ATP released from lysed cells allowed for the generation of a signal proportional to the number of cells present in the well. All endpoint reads were performed using the PheraSTAR Plus (BMG Labtech). Data is expressed as % viable cells and % dead cells against controls (mean±SEM of duplicate curves).
(Cellular ATP, detected with luciferase, serves as a proxy for viable cell number.)

WT full length PAICS, sequence (P22234 whole entry): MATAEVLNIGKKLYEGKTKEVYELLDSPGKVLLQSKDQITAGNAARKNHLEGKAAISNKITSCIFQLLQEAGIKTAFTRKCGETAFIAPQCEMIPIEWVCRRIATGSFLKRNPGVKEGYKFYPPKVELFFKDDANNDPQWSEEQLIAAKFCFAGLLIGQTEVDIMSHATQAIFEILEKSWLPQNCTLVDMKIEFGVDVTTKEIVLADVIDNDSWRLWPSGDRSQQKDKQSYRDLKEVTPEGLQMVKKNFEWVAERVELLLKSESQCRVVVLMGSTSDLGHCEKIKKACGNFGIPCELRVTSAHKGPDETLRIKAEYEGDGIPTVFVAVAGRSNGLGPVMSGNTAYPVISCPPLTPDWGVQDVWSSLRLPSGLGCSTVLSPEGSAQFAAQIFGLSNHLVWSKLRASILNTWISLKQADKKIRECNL

The term IC50 denotes the point on the concentration scale where inhibition reaches its midpoint. A high value points to weaker potency. In general, EC50 refers to the concentration needed to bring the measured effect to its halfway point. Lower therefore signals an effect from little substance. In the case of `Nc1nc(C(=O)Nc2cc(N3CCN(C(=O)OCC4CNC4)CC3)ccc2Cl)co1` [Example 19, Azetidin-3-ylmethyl 4-(3-(2-aminooxazole-4-carboxamido)-4-chlorophenyl) piperazine-1-carboxylate], in assay [1], the IC50 was greater than 100 nM. Moreover, in assay [2], the EC50 is 500 to 1000 nM.
`CN1CC(COC(=O)N2CCN(c3ccc(Cl)c(NC(=O)c4coc(N)n4)c3)CC2)C1` [Example 20, (1-Methylazetidin-3-yl) methyl 4-(3-(2-aminooxazole-4-carboxamido)-4-chlorophenyl) piperazine-1-carboxylate] registered an IC50 in assay [1] of 10 to 25 nM. The EC50 in assay [2] is 500 to 1000 nM.
Compound `Nc1nc(C(=O)Nc2cc(N3CCN(C(=O)OCCNC4CC4)CC3)ccc2Br)co1` [Example 21, 2-(Cyclopropylamino)ethyl 4-(3-{[(2-amino-1,3-oxazol-4-yl)carbonyl]amino}-4-bromophenyl)piperazine-1-carboxylate] returned an IC50 in assay [1] of 10 to 25 nM. Moreover, the EC50 in assay [2] was 100 to 250 nM.
The like results for `Nc1nc(C(=O)Nc2cc(N3CCN(C(=O)OC4CNC4)CC3)ccc2Cl)co1` [Example 22, Azetidin-3-yl 4-(3-{[(2-amino-1,3-oxazol-4-yl)carbonyl]amino}-4-chlorophenyl)piperazine-1-carboxylate] were, in that order, greater than 100 nM and 100 to 250 nM.
In turn, `CNCCOC(=O)N1CCN(c2ccc(Br)c(NC(=O)c3coc(N)n3)c2)CC1` [Example 25, 2-(Methylamino)ethyl 4-(3-(2-aminooxazole-4-carboxamido)-4-bromophenyl)piperazine-1-carboxylate] had an IC50 in assay [1] of 10 to 25 nM. Besides, the concentration giving a half-maximal response (EC50) in assay [2] is 100 to 250 nM.
`CSc1ccc(N2CCN(C(=O)OCCCN(C)C)CC2)cc1NC(=O)c1coc(N)n1` [Example 26, 3-(Dimethylamino)propyl-4-[3-{[(2-amino-1,3-oxazol-4-yl)carbonyl]amino}-4-(methylsulfanyl)phenyl]piperazine-1-carboxylate] yielded an EC50 in assay [2] of 500 to 1000 nM.
`CSc1ccc(N2CCN(C(=O)OCCN(C)C)CC2)cc1NC(=O)c1coc(N)n1` [Example 27, 2-(Dimethylamino)ethyl 4-[3-{[(2-amino-1,3-oxazol-4-yl)carbonyl]amino}-4-(methylsulfanyl)phenyl]piperazine-1-carboxylate]: the EC50 in assay [2] fell in the range of 500 to 1000 nM.
Compound `CN1CC(OC(=O)N2CCN(c3ccc(Br)c(NC(=O)c4coc(N)n4)c3)CC2)C1` [Example 28, 1-Methylazetidin-3-yl 4-(3-{[(2-amino-1,3-oxazol-4-yl)carbonyl]amino}-4-bromophenyl)piperazine-1-carboxylate] gave a half-inhibitory concentration (IC50) in assay [1] of 10 to 25 nM. The concentration for a half-maximal effect (EC50) in assay [2] was 250 to 500 nM.
The like results for `CN(C)CCCOC(=O)N1CCN(c2ccc(Cl)c(NC(=O)c3coc(N)n3)c2)CC1` [Example 29, 3-(Dimethylamino)propyl 4-(3-{[(2-amino-1,3-oxazol-4-yl)carbonyl]amino}-4-chlorophenyl)piperazine-1-carboxylate] were, in that order, 25 to 100 nM and 500 to 1000 nM.
In the case of `CN1CCC(OC(=O)N2CCN(c3ccc(Cl)c(NC(=O)c4coc(N)n4)c3)CC2)C1` (stereo not drawn) [Example 30, 1-Methylpyrrolidin-3-yl 4-(3-{[(2-amino-1,3-oxazol-4-yl)carbonyl]amino}-4-chlorophenyl)piperazine-1-carboxylate], the IC50 in assay [1] is greater than 100 nM. In assay [2], this compound returned an EC50 of 500 to 1000 nM.
In assay [1], `CNCCOC(=O)N1CCN(c2ccc(Cl)c(NC(=O)c3coc(N)n3)c2)CC1` [Example 31, 2-(Methylamino)ethyl 4-(3-{[(2-amino-1,3-oxazol-4-yl)carbonyl]amino}4-chlorophenyl)piperazine-1-carboxylate] returned an IC50 of 25 to 100 nM. The compound also yielded an EC50 in assay [2] of 500 to 1000 nM.
Consider `Nc1nc(C(=O)Nc2cc(N3CCN(C(=O)OC4CCNC4)CC3)ccc2Cl)co1` (stereo not drawn) [Example 32, Pyrrolidin-3-yl 4-(3-{[(2-amino-1,3-oxazol-4-yl)carbonyl]amino}-4-chlorophenyl)piperazine-1-carboxylate], for which the half-inhibitory concentration (IC50) in assay [1] was in the range of 25 to 100 nM. In assay [2], this compound gave an EC50 of 500 to 1000 nM.
Consider `CC(CN1CCCC1)CS(=O)(=O)N1CCN(c2ccc(Br)c(NC(=O)c3coc(N)n3)c2)CC1` (stereo not drawn) [Example 71, 2-Amino-N-[2-bromo-5-(4-{[2-methyl-3-(pyrrolidin-1-yl)propyl]sulfonyl}piperazin-1-yl)phenyl]-1,3-oxazole-4-carboxamide], for which the EC50 in assay [2] is less than 100 nM.
`CNCC(C)CS(=O)(=O)N1CCN(c2ccc(Br)c(NC(=O)c3coc(N)n3)c2)CC1` (stereo not drawn) [Example 78, 2-Amino-N-[2-bromo-5-(4-{[2-methyl-3-(methylamino)propyl]sulfonyl}piperazin-1-yl)phenyl]-1,3-oxazole-4-carboxamide] came in with an EC50 in assay [2] of less than 100 nM.
`CCNCC(C)CS(=O)(=O)N1CCN(c2ccc(Br)c(NC(=O)c3coc(N)n3)c2)CC1` (stereo not drawn) [Example 79, 2-Amino-N-[2-bromo-5-(4-{[3-(ethylamino)-2-methylpropyl]sulfonyl}piperazin-1-yl)phenyl]-1,3-oxazole-4-carboxamide]: in assay [2], the EC50 is less than 100 nM.
`CC(CNC(C)C)CS(=O)(=O)N1CCN(c2ccc(Br)c(NC(=O)c3coc(N)n3)c2)CC1` (stereo not drawn) [Example 80, 2-Amino-N-[2-bromo-5-(4-{[2-methyl-3-(propan-2-ylamino)propyl]sulfonyl}piperazin-1-yl)phenyl]-1,3-oxazole-4-carboxamide] yielded an EC50 in assay [2] of less than 100 nM.
In assay [2], `CCN(CC)CC(C)CS(=O)(=O)N1CCN(c2ccc(Br)c(NC(=O)c3coc(N)n3)c2)CC1` (stereo not drawn) [Example 81, 2-Amino-N-[2-bromo-5-(4-{[3-(diethylamino)-2-methylpropyl]sulfonyl}piperazin-1-yl)phenyl]-1,3-oxazole-4-carboxamide] had a concentration for a half-maximal effect (EC50) of 100 to 250 nM.
In turn, `CC(CN(C)C)CS(=O)(=O)N1CCN(c2ccc(Br)c(NC(=O)c3coc(N)n3)c2)CC1` (stereo not drawn) [Example 82, 2-Amino-N-[2-bromo-5-(4-{[3-(dimethylamino)-2-methylpropyl]sulfonyl}piperazin-1-yl)phenyl]-1,3-oxazole-4-carboxamide] returned an EC50 in assay [2] of 100 to 250 nM.
Regarding `Nc1nc(C(=O)Nc2cc(N3CCN(S(=O)(=O)C4CCNC4)CC3)ccc2Br)co1` (stereo not drawn) [Example 88, 2-Amino-N-{2-bromo-5-[4-(pyrrolidin-3-ylsulfonyl)piperazin-1-yl]phenyl}-1,3-oxazole-4-carboxamide], the EC50 in assay [2] fell in the range of 100 to 250 nM.
In turn, `CN1CCC(S(=O)(=O)N2CCN(c3ccc(Br)c(NC(=O)c4coc(N)n4)c3)CC2)C1` (stereo not drawn) [Example 89, 2-Amino-N-(2-bromo-5-{4-[(1-methylpyrrolidin-3-yl)sulfonyl]piperazin-1 yl}phenyl)-1,3-oxazole-4-carboxamide] showed an EC50 in assay [2] of 100 to 250 nM.
